Measured values: patent US20240415851A1, “REMODILINS TO PREVENT OR TREAT CANCER METASTASIS, GLAUCOMA, AND HYPOXIA” (The University of Chicago, priority 2019, published 2024)
“Also recorded” adds a separate entry of the source. Where two headings read alike, the source gives them in different places.

Columns and labels:
[1] = tested on: human lung-derived fibroblasts; assay: TGFβ-induced myofibroblast transformation (ACTA2, FN1 protein expression); type: cell-based; conditions: 1 ng/mL TGFβ1; 0, 1, 3, or 10 μM remodilin for 2 d; dose-dependent
Protocol: FIG. 1 Remodilins inhibit myofibroblast transformation (MFT). Serum deprived human lung-derived fibroblasts were treated with 1 ng/mL TGFβ1 (or not, left lane) and 0, 1, 3, or 10 μM remodilin for 2 d. Four remodilins each inhibited smooth muscle α-actin (ACTA2) or fibronectin-1 (FN1) protein expression (markers of MFT).

[2] = tested on: MDA-MB-231 cells; assay: Spheroid invasion into collagen gels; type: cell-based, human; conditions: 10 µM remodilin; 48 hrs; collagen 2 mg/mL; DMEM 0.5% FBS; vs 0.1% DMSO
Protocol: FIG. 3 MDA-MB-231 cells were grown into spheroids, then allowed to migrate into collagen gels in DMEM containing 0.5% FBS and remodilin (10 µM remodilin 39 [top row] or remodilin 83 [bottom row]) or diluent (0.1% DMSO) for 48 hrs (representative 48 hr images shown).
(§1) Remodilins 39 and 83 each slowed the invasion of triple negative MDA-MB-231 human breast cancer cells from spheroids into a surrounding collagen gel (FIG. 3), and also slowed the serum-directed invasion MDA-MB-231-derived BM1 cells through Matrigel-coated transwells (FIG. 4). Remodilins 39 and 83 also slowed the migration of MDA-MB-231 cells in a scratch wound healing assay (FIG. 5).

[3] = tested on: MDA-MB-231-derived BM1 cells; assay: 10% FBS-directed invasion through Matrigel-coated transwell membrane; type: cell-based, human; conditions: dose-dependent; n=3/condition
Excerpt: FIG. 4 Remodilins 39 and 83 inhibited 10% FBS-directed invasion migration of MDA-MB-231-derived BM1 cells through a Matrigel-coated transwell mem-brane, in a dose-dependent fashion. Mean+SEM shown; n=3/condition. **P<0.01; ***P<0.001; ****P<0.0001.
as §1

[4] = tested on: MDA-MB-231 cells; assay: Scratch wound healing migration assay; type: cell-based, human; conditions: dose-dependent; 1, 3, 10 uM; n=8 wells/condition
Protocol: Mean+SD shown; n=8 wells/condition. P<0.0001 for 1, 3, & 10 uM remodilin 39 vs DMSO (control) by 2-way ANOVA/Dunnett's.
as §1

[5] = tested on: MDA-MB-231 cells; assay: Alamar blue assay (growth inhibition, cytotoxicity); type: cell-based, human; conditions: concentrations to at least 10 uM
[6] = In vivo PK and oral bioavailability, single dose; conditions: mouse, plasma, wild-type mice, 10 mg/kg single dose
Protocol: (§2) The in vivo bioavailability, plasma half-life, Cmax, and area under the curve (AUC) were determined after administration of single 10 mg/kg doses of remodilins 39 and 83 to mice (Table 1). Selected tissue concentrations of remodilins 39 and 83 after single oral doses of 10 or 50 mg/kg (FIG. 6). The PK properties of these remodilins differ substantially.

[7] = Tissue and plasma concentrations after single oral doses; type: in vivo; conditions: mice
Protocol: FIG. 6 Tissue and plasma remodilin concentrations after single oral doses (filled circles 50 mg/kg; open circles-10 mg/kg). […] The greater oral bioavailability, longer half-life, and inter-tissue variation of remodilin 83 concentration are readily evident. Mean+SEM shown; n=3/condition.
as §2
(§3) PK was re-evaluated after 14 days of intraperitoneal (IP) or oral BID dosing. […] Plasma levels after single or 15 consecutive once-daily IP 10 mg/kg doses of remodilin 39 were examined (FIG. 8). The plasma concentration of 10 μM remodilin 39 corresponds to 5314 ng/mL.

[8] = Tissue concentrations after 14 d BID dosing (IP or PO); type: in vivo; conditions: for concentration at 14 days: liver, lung, intraperitoneal
Protocol: Mean+SEM shown; n=3/condition. Dotted lines show concentration corresponding to 10 μM.
as §3
(§4) In the experiments corresponding to FIG. 7, remodilin 83 was dissolved in 20% Solutol in PBS.

[9] = Lipophilicity and dissolution in vehicles; type: physicochemical
Protocol: as §4

[10] = tested on: HIF1α; assay: TGFβ-induced HIF1α accumulation in fibroblasts; type: cell-based, human; conditions: 48 hrs TGFβ treatment
Excerpt: (§5) FIG. 12A-12B Remodilins inhibit accumulation of hypoxia-inducible factor-1 alpha (HIF1α) protein. FIG. 12A Effect of remodilin 83 on TGFβ-induced phosphorylation of AKT and ERK1/2 and TGFβ-induced HIF1α accumulation in human fibroblasts. FIG. 12B Both remodilins 39 and 83 inhibited HIF1α accumulation in HEK293 cells exposed to 6 hrs of hypoxia (1% 02).
(§6) The influence of remodilin 83 on HIF-1α accumulation in TGFβ-treated fibroblasts was examined. […] Similarly, both remodilins 39 and 83 inhibited HIF1α accumulation in HEK293 cells exposed to 6 hrs of hypoxia (1% O2; FIG. 12B). […] N—normoxia; H—hypoxia.

[11] = tested on: AKT; assay: TGFβ-induced AKT phosphorylation in fibroblasts; type: cell-based; conditions: human fibroblasts
Excerpt: as §5, §6

[12] = tested on: ERK1/2; assay: TGFβ-induced ERK1/2 phosphorylation in fibroblasts; type: cell-based; conditions: human fibroblasts
Excerpt: as §5, §6

[13] = tested on: HIF1α; assay: Hypoxia-induced HIF1α accumulation in HEK293 cells; type: cell-based; conditions: 6 hrs steady hypoxia (1% oxygen); 3 μM or 10 µM
Excerpt: as §5, §6

[14] = tested on: HIF1α; assay: Hypoxia-induced HIF1α accumulation in HEK293T cells (Western blot); type: cell-based; conditions: 6 hrs steady hypoxia; 3 or 10 μM
Excerpt: FIG. 14A-14B Remodilins' effects on hypoxia-induced accumulation of HIF1α. […] FIG. 14B HIF1α was absent in cells ex-posed to 6 hrs normoxia (N).
OSA is a chronic, morbid disease affecting about 10% of the adult population, in which frequent episodes of upper airway collapse obstruct inspiratory airflow and cause IH. These episodes of IH disrupt sleep but perhaps more importantly accelerate multiple cardiometabolic abnormalities, including systemic hypertension, cardiovascular disease, stroke, and abnormal glucose metabolism. Therefore, remodilins were examined for their ability on inhibit hypoxia-induced accumulation of HIF1α, a transcription factor that mediates many of the adverse responses to IH.

[15] = tested on: A549 lung adenocarcinoma cells; assay: Oxygen consumption rate and extracellular acidification rate; type: cell-based; conditions: treated at time=30 min
Protocol: FIG. 13A-13B Effect of remodilin 83 on oxygen consumption rate (OCR) and extracellular acidification rate (ECAR). FIG. 13A A549 cells were treated with remodilin 83 (open circles) or its vehicle (filled circles) at time=30 min, and oxygen consumption rate (OCR) was continuously measured over time. FIG. 13B A549 cells were treated with remodilin 83 (open circles) or its vehicle (filled circles) at time=30 min, and extracellular acidification rate (ECAR) was measured continuously over time. Cells were sequentially treated with oligomycin (ATP synthase inhibitor), FCCP (uncoupler) and antimycin A/rotenone (A+R) (complex III and I inhibitor).
A549 cells were treated with remodilin 83 (open circles) or its vehicle (filled circles) at time=30 min, and oxygen consumption rate (OCR) and extracellular acidification rate (ECAR) were measured continuously over time. Cells were sequentially treated with oligomycin (ATP synthase inhibitor), FCCP (uncoupler) and antimycin A/rotenone (A+R) (complex III and I inhibitor).

[16] = tested on: Sprague Dawley rats; assay: Intermittent hypoxia (IH)-induced systemic hypertension; type: in vivo
Protocol: FIG. 15A-15B Remodilin's effect on hypertension and weight. […] N=2/group; DO-Day 0 (prior to IH), D11-Day 11.
Remodilins were tested for their ability to inhibit the systemic hypertension induced in rats subjected to IH in vivo.

Structure (SMILES): CC1CN(S(=O)(=O)c2ccc(NC(=O)c3ccc(Br)c(I)c3)cc2)CCN1 (centres unmarked) [Remodilin 83, 4-Bromo-3-iodo-N-(4-((3-methylpiperazin-1-yl)sulfonyl)phenyl)benzamide]
- TGFβ-stimulated transformation of human lung-derived fibroblasts to myofibroblast phenotype (ACTA2 or FN1 protein expression) [1]: blunt TGFβ-stimulated transformation
- invasion of MDA-MB-231 cells from spheroids into collagen gels [2]: inhibited invasion
- 10% FBS-directed invasion migration of BM1 cells through Matrigel-coated transwell membrane [3]: inhibited
- migration of confluent MDA-MB-231 cells into circular scratch wound [4]: inhibited migration
- growth inhibition or cytotoxicity by Alamar blue assay [5]: Neither remodilin is growth-inhibitory or cytotoxic
- bioavailability ([6]; po): 22%
- AUC [6]: 1300 ng·h/mL
- Cmax [6]: 0.38 µM
- half-life [6]: 8.4 h
- maintenance of tissue or plasma levels above 10 μM throughout the day ([7]; single oral doses): did not maintain tissue or plasma levels above 10 μM throughout the day
- tissue distribution ([7]; single oral doses of 10 or 50 mg/kg (FIG. 6)): highly preferentially distributed to the lung
- variation of tissue concentrations over the 12-hour dosing period, IP ([8]; after 14 d BID dosing, given IP): relatively steady within each tissue
- variation of tissue concentrations over the 12-hour dosing period, PO ([8]; after 14 d BID dosing, given PO): greater variation over time
- Brain levels ([8]; after 14 days BID dosing): low
- concentration at 14 days ([8]; female, Balb/c, mouse, heart, kidney, 40 mg/kg BID IP, 14 days, read-out: levels in liver, heart, lung, and kidney): ~10 µM
- mortality or gross clinical evidence of toxicity ([8]; mouse, in vivo): no mortality or gross clinical evidence of toxicity
- concentration at 14 days ([8]; mouse, 14-day 40 mg/kg BID IP in 20% Solutol, female Balb/c mice, read-out: liver and lung concentrations): < 10 µM
- lipophilicity / lipid solubility [9]: lipophilic; also recorded: highly lipid soluble
- dissolution in 20% Solutol or DMSO ([9]; 20% Solutol or DMSO): readily dissolved
- TGFβ-induced HIF1α accumulation in human fibroblasts [10]: this response was absent
- TGFβ-induced AKT phosphorylation [11]: inhibited TGFβ-induced AKT phosphorylation
- TGFβ-induced ERK1/2 phosphorylation [12]: not TGFβ-induced ERK1/2 phosphorylation
- HIF1α accumulation in HEK293 cells exposed to hypoxia [13]: blunted HIF1α accumulation substantially
- HIF1α accumulation in HEK293T cells exposed to hypoxia [14]: inhibit the accumulation of HIF1α
- extracellular acidification rate (ECAR), marker of glycolysis [15]: decreases both mitochondrial respiration and glycolysis
- oxygen consumption rate (OCR), mitochondrial respiration [15]: decreases both mitochondrial respiration and glycolysis
- systemic hypertension induced by 10 days of IH (8 hrs/day) ([16]; 20 mg/kg BID IP, N=2/group): blocks the systemic hypertension
- health as judged by clinical observation or weight gain ([16]; D0 to D11): no obvious effect on health
- blood pressure in rats unexposed to IH ([16]; N=2/group): little effect on blood pressure
